Data set [1] has as its system human osteosarcoma cells (MG-63). Put plainly: cytotoxicity by SRB assay. The format is cell-based. As to conditions: MG-63 cells, 0.01 μM to 100 μM for 72 h. The text has this:
(§1) The anticancer activity of the described synthesized compounds against highly aggressive androgen-independent metastatic human prostate cancer cells (PC3) and osteosarcoma (MG-63) cells. The human prostate cancer cells (PC3) and human osteosarcoma cells (MG-63) were obtained from Nawah Scientific Inc. (Mokatam, Cairo, Egypt) and cultured in DMEM (Dulbecco's modified eagle's medium), Gibco, USA, supplemented with fetal bovine serum (FBS) at a concentration of 10% and 100 U/mL of penicillin and streptomycin (PS). The Cells were incubated at 37° C. in a humidified environment that contained 5% CO2.
(§2) Cells were seeded in 96-well plates as aliquots of 100 μL cell suspension and incubated in a complete media for 24 h. afterward, cells were treated with 5-((2-isopropyl-5-methylphenoxy)methyl)-3-(naphthalen-2-yl)-1,2,4-oxadiazole at diverse concentrations ranging from 0.01 μM to 100 μM for 72 h. Then, cells were fixed at 4° C. for one hour with 150 μL of 10% trichloroacetic acid (TCA). […] Then, 150 μL of Tris pH 10.5 (10 mM) was added, and the absorbance was measured at 540 nm using a BMG LABTECH®-FLUOstar Omega microplate reader (Ortenberg, Germany). Half maximal inhibitory concentrations (IC50) values were calculated for each experiment using GraphPad Prism 6 software. […]
(§3) The inhibition was calculated using the following equation: Inhibition %=100−Average Viability
(In general: Sulforhodamine B stains cellular protein and so reports cell mass.)

Data set [2] has as its system human prostate cancer cells (PC3). Put plainly: cytotoxicity by SRB assay. The format is cell-based. As to conditions: 0.01 μM to 100 μM for 72 h.
Source text: as §1, §2, §3

In data set [3] the test system is Chrysosporium keratinophilum. The experiment in a line: agar plate disc-diffusion, antifungal inhibition zone. The format is cell-based. As for the experimental part:
(§4) The agar plate disc-diffusion method was applied. […] The discs were then placed onto the surface of agar plates (nutrient agar for bacteria and Sabouraud's dextrose agar for fungi) seeded with the test organism. Each plate contained 15 mL of the agar medium, previously seeded with 0.2 mL of the broth culture of each organism pregrown for 18 hours. The plates were incubated at 37° C. for 48 h, and 72 h for fungi. The inhibition zones were measured in mm. Discs impregnated with DMSO were used as a control, and its inhibition zone was subtracted from the tested compound actual inhibition zone.
(In general: In agar diffusion tests the substance spreads into inoculated agar from a disc or well.)

A further data set has as its system Aspergillus flavus. The data set is described as above. The format is cell-based. The procedure:
as §4

The next data set has as its system Bacillus Cereus. The experiment in a line: agar plate disc-diffusion, antibacterial inhibition zone. The format is cell-based. As for the experimental part: as §4
A further data set concerns Escherichia coli. Described as above. The format is cell-based. The procedure: as §4
For the next data set, the system named is Staphylococcus aureus. The data set is described as above. The format is cell-based. As for the experimental part: as §4
A further data set relates to Pseudomonas aeruginosa. The description is as above. The format is cell-based. The procedure:
as §4

The next data set relates to different microbes. Put plainly: agar plate disc-diffusion, overall antimicrobial activity. The format is cell-based. As to conditions: against different microbes (bacteria and fungi). As for the experimental part: The agar plate disc-diffusion method was applied. Sterilized filter papers (6 mm in diameter) were wetted with 10 μL of a solution of 5-((2-isopropyl-5-methylphenoxy)methyl)-3-(naphthalen-2-yl)-1,2,4-oxadiazole (3) to be tested, containing 10 mg/mL in DMSO, and the discs were allowed to air dry. The discs were then placed onto the surface of agar plates (nutrient agar for bacteria and Sabouraud's dextrose agar for fungi) seeded with the test organism. Each plate contained 15 mL of the agar medium, previously seeded with 0.2 mL of the broth culture of each organism pregrown for 18 hours. The plates were incubated at 37° C. for 48 h, and 72 h for fungi. The inhibition zones were measured in mm. Discs impregnated with DMSO were used as a control, and its inhibition zone was subtracted from the tested compound actual inhibition zone.

Setting [4] is: A = concentration of comp. = 10,000 μL.
The mark [5] stands for this setting: B = concentration of comp. = 30,000 μL.
Where [6] appears, read: C = concentration of comp. = 50,000 μL.

In the case of `Cc1ccc(C(C)C)c(OCc2nc(-c3ccc4ccccc4c3)no2)c1` [compound 3, 5-((2-isopropyl-5-methylphenoxy)methyl)-3-(naphthalen-2-yl)-1,2,4-oxadiazole], the melting point – broadly, the temperature, or range, at which the solid turns liquid – lay in the range of 187 to 188 °C. The antiproliferative activity entry in data set [1] is reported as “excellent antiproliferative activities”. Moreover, the antiproliferative activity result in data set [2] is recorded as “excellent antiproliferative activities”. Besides, the inhibition zone in data set [3] (setting [4]) was found to be 26 mm. In data set [3] (setting [5]), this compound came in with an inhibition zone of 29 mm. The inhibition zone in [3] (setting [6]) came to 45 mm. In the data set on Aspergillus flavus (setting [4]), this compound gave an inhibition zone of 20 mm. The same compound returned an inhibition zone in the data set on Aspergillus flavus (setting [5]) of 25 mm. The same compound gave an inhibition zone with Aspergillus flavus (setting [6]) of 33 mm. Further, the inhibition zone in the data set on Bacillus Cereus (setting [4]) was 24 mm. Moreover, the inhibition zone in the data set with Bacillus Cereus (setting [5]) is listed as 27 mm. The same compound showed an inhibition zone with Bacillus Cereus (setting [6]) of 38 mm. The same compound registered an inhibition zone in the data set on Escherichia coli (setting [4]) of 28 mm. Further, the inhibition zone with Escherichia coli (setting [5]) was found to be 34 mm. The compound further yielded an inhibition zone in the data set on Escherichia coli (setting [6]) of 49 mm. For the same compound, the inhibition zone in the data set on Staphylococcus aureus (setting [4]) came out at 17 mm. Also, the inhibition zone in the data set on Staphylococcus aureus (setting [5]) amounted to 24 mm. The inhibition zone with Staphylococcus aureus (setting [6]) was 32 mm. The inhibition zone with Pseudomonas aeruginosa (setting [4]) is on record as 25 mm. In addition, the inhibition zone in the data set with Pseudomonas aeruginosa (setting [5]) was 29 mm. The same compound had an inhibition zone in the data set on Pseudomonas aeruginosa (setting [6]) of 40 mm. Further, in the data set with different microbes, the antimicrobial activity result was “excellent antimicrobial activities”.
Take `O=C(O)c1cn(C2CC2)c2cc(N3CCNCC3)c(F)cc2c1=O` [Cip., ciprofloxacin, reference compound]: the inhibition zone is recorded as 29 mm in data set [3] (setting [4]); 30 mm in data set [3] (setting [5]); 53 mm in [3] (setting [6]); 29 mm in the data set on Aspergillus flavus (setting [4]); 30 mm in the data set with Aspergillus flavus (setting [5]); 42 mm in the data set with Aspergillus flavus (setting [6]). For the same compound, the inhibition zone with Bacillus Cereus (setting [4]) stood at 29 mm; in the data set on Bacillus Cereus (setting [5]) it was 30 mm; in the data set with Bacillus Cereus (setting [6]) it was 42 mm; in the data set with Escherichia coli (setting [4]), 30 mm; with Escherichia coli (setting [5]), 39 mm; in the data set with Escherichia coli (setting [6]) it was 60 mm. Further, the inhibition zone in the data set on Staphylococcus aureus (setting [4]) came out at 43 mm; in the data set with Staphylococcus aureus (setting [5]), 44 mm; with Staphylococcus aureus (setting [6]), 53 mm; in the data set with Pseudomonas aeruginosa (setting [4]) it was 29 mm; with Pseudomonas aeruginosa (setting [5]), 30 mm; with Pseudomonas aeruginosa (setting [6]) it was 53 mm.

The values are drawn from patent US11952354B1, “5-((2-isopropyl-5-methylphenoxy)methyl)-3-(naphthalen-2-yl)-1,2,4-oxadiazole as an anti-cancer and antimicrobial compound” (KING FAISAL UNIVERSITY, priority 2023, dated 2024).
